# Measured values as given in ChEMBL document CHEMBL4800724 (2021).
# The source made the active and inactive calls. No cut-off for these calls is given here.
# Assays:
# Rattus norvegicus = organism: Rattus norvegicus; conditions: Compound concentration 10.0 uM
# [1] = biological target: Kappa-type opioid receptor (Homo sapiens) (UniProt P41145); conditions: Compound concentration 10.0 uM
# [2] = biological target: Histamine H2 receptor (Homo sapiens) (UniProt P25021); conditions: Compound concentration 10.0 uM
# [3] = biological target: D(2) dopamine receptor (Homo sapiens) (UniProt P14416); conditions: Compound concentration 10.0 uM
# [4] = biological target: Beta-3 adrenergic receptor (Homo sapiens) (UniProt P13945); conditions: Compound concentration 10.0 uM
# [5] = biological target: T1, GABA-A receptor; anion channel (Rattus norvegicus) (UniProt O09028+P15431+P18506+P18508+P19969+P20236+P23574+P23576+P28471+P28473+P30191+P62813+P63079+P63138+Q91ZM7+Q9ES14); conditions: Compound concentration 10.0 uM
# [6] = biological target: Beta-2 adrenergic receptor (Homo sapiens) (UniProt P07550); conditions: Compound concentration 10.0 uM
# [7] = biological target: D(3) dopamine receptor (Homo sapiens) (UniProt P35462); conditions: Compound concentration 10.0 uM
# [8] = biological target: 5-hydroxytryptamine receptor 1B (Homo sapiens) (UniProt P28222); conditions: Compound concentration 10.0 uM
# [9] = biological target: T2, Sigma non-opioid intracellular receptor 1 (Homo sapiens, UniProt Q99720); assay: GPCRScan assay: inhibition of Sigma 1; parameters: radioligand conc. used [nm] 4.0 – 5.0, parental cells HEKT
# T2 sequence (Q99720 whole entry): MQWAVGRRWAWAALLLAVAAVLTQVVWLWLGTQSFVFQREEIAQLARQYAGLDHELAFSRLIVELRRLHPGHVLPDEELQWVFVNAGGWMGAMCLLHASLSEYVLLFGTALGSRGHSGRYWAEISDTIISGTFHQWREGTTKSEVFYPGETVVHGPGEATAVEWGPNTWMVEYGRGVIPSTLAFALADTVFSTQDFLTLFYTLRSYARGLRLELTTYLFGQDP
# [10] = biological target: Histamine H4 receptor (Homo sapiens) (UniProt Q9H3N8); conditions: Compound concentration 10.0 uM
# [11] = biological target: Sodium-dependent noradrenaline transporter (Homo sapiens) (UniProt P23975); conditions: Compound concentration 10.0 uM
# [12] = biological target: Delta-type opioid receptor (Homo sapiens) (UniProt P41143); conditions: Compound concentration 10.0 uM
# [13] = biological target: Mitogen-activated protein kinase 14 (Homo sapiens, UniProt Q16539); assay: NanoBRET (SGC Frankfurt) (MAPK14)
# [14] = biological target: Alpha-1A adrenergic receptor (Homo sapiens) (UniProt P35348); conditions: Compound concentration 10.0 uM
# Alpha-1A adrenergic receptor (Homo sapiens), sequence (P35348 whole entry): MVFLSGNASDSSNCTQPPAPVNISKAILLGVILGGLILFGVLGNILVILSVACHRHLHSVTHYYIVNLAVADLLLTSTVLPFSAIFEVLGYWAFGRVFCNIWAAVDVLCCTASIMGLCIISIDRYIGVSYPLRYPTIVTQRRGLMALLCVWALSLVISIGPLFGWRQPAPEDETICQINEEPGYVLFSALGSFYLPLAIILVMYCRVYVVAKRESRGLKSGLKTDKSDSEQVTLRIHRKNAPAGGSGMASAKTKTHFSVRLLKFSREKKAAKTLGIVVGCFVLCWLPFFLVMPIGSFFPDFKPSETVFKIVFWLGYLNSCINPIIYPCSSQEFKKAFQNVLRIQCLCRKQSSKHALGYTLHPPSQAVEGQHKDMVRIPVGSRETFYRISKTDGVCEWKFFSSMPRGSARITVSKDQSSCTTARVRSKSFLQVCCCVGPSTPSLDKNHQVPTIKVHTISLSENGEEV
# [15] = biological target: Muscarinic acetylcholine receptor M3 (Homo sapiens) (UniProt P20309); conditions: Compound concentration 10.0 uM
# [16] = biological target: Alpha-2C adrenergic receptor (Homo sapiens) (UniProt P18825); conditions: Compound concentration 10.0 uM
# [17] = biological target: Histamine H1 receptor (Homo sapiens) (UniProt P35367); conditions: Compound concentration 10.0 uM
# [18] = biological target: D(4) dopamine receptor (Homo sapiens) (UniProt P21917); conditions: Compound concentration 10.0 uM
# [19] = biological target: Ubiquitin carboxyl-terminal hydrolase isozyme L1 (Homo sapiens) (UniProt P09936); assay: UCHL1 activity based protein profiling assay (ABPP)
# [20] = biological target: 5-hydroxytryptamine receptor 2C (Homo sapiens) (UniProt P28335); conditions: Compound concentration 10.0 uM
# [21] = biological target: 5-hydroxytryptamine receptor 6 (Homo sapiens) (UniProt P50406); conditions: Compound concentration 10.0 uM
# 5-hydroxytryptamine receptor 6 (Homo sapiens), sequence (P50406 whole entry): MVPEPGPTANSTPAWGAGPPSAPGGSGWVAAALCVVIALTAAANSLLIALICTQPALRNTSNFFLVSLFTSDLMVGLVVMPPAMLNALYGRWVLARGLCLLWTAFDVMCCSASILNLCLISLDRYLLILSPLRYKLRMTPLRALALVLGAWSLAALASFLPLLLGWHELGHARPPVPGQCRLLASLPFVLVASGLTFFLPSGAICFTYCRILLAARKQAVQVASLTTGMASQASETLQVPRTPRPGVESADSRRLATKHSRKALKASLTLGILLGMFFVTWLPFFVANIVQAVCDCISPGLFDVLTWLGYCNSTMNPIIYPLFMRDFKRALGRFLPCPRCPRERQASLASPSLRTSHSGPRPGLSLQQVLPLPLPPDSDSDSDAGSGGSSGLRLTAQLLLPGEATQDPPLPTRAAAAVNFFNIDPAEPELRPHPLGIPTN
# [22] = biological target: Sigma intracellular receptor 2 (Homo sapiens) (UniProt Q5BJF2); conditions: Compound concentration 10.0 uM
# Sigma intracellular receptor 2 (Homo sapiens), sequence (Q5BJF2 whole entry): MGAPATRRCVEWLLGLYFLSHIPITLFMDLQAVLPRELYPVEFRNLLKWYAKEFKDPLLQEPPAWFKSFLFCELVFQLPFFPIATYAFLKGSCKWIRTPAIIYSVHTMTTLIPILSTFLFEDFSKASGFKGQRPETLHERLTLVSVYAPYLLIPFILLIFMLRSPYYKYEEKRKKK
# [23] = biological target: Muscarinic acetylcholine receptor M1 (Homo sapiens) (UniProt P11229); conditions: Compound concentration 10.0 uM
# [24] = biological target: T2, Sigma non-opioid intracellular receptor 1; conditions: Compound concentration 10.0 uM
# [25] = biological target: Sodium-dependent serotonin transporter (Homo sapiens) (UniProt P31645); conditions: Compound concentration 10.0 uM
# Sodium-dependent serotonin transporter (Homo sapiens), sequence (P31645 whole entry, looked up): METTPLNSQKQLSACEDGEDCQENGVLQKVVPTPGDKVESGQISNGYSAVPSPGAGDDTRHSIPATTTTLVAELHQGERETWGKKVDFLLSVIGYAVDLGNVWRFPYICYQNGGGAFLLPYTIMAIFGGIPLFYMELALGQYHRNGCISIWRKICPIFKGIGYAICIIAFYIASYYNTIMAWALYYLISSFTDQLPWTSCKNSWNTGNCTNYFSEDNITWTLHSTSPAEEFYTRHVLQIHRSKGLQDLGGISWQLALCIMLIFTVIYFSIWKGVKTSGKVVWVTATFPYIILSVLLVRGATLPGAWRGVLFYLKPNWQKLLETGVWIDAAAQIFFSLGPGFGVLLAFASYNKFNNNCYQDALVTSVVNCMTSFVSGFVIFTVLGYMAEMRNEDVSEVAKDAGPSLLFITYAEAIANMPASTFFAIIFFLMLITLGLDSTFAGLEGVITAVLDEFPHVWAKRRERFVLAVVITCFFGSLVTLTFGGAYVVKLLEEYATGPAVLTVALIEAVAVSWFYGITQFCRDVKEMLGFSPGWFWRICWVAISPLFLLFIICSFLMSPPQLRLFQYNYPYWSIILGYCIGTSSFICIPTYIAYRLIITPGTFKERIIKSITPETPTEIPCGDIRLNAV
# [26] = biological target: 5-hydroxytryptamine receptor 1E (Homo sapiens) (UniProt P28566); conditions: Compound concentration 10.0 uM
# 5-hydroxytryptamine receptor 1E (Homo sapiens), sequence (P28566 whole entry): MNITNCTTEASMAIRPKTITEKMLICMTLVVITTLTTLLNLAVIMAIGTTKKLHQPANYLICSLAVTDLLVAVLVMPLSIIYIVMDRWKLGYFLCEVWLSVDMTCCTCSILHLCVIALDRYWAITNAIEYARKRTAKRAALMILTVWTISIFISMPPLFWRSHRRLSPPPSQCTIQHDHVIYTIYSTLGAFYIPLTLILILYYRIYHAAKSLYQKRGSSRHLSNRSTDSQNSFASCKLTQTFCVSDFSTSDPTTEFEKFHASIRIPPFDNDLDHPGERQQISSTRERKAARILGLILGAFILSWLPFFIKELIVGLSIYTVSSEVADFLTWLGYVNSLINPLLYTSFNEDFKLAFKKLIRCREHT
# [27] = biological target: D(1B) dopamine receptor (Homo sapiens) (UniProt P21918); conditions: Compound concentration 10.0 uM
# [28] = biological target: T1, GABA-A receptor; anion channel (Rattus norvegicus); conditions: Compound concentration 10.0 uM; remark: listed apart in the source
# [29] = biological target: Beta-1 adrenergic receptor (Homo sapiens) (UniProt P08588); conditions: Compound concentration 10.0 uM
# [30] = biological target: 5-hydroxytryptamine receptor 2A (Homo sapiens) (UniProt P28223); conditions: Compound concentration 10.0 uM
# 5-hydroxytryptamine receptor 2A (Homo sapiens), sequence (P28223 whole entry): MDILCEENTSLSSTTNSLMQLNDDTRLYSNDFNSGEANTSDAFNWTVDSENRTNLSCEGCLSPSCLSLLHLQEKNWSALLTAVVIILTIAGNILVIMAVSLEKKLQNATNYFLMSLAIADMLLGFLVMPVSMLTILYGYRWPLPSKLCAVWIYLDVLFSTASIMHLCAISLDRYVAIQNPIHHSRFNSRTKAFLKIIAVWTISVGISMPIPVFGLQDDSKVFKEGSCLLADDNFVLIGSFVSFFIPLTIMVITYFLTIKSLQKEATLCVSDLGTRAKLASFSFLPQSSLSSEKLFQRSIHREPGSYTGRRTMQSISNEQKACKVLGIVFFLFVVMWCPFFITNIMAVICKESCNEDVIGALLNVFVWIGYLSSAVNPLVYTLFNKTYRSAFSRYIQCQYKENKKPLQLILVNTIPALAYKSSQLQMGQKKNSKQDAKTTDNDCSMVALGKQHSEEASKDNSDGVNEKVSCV
# [31] = biological target: 5-hydroxytryptamine receptor 2B (Homo sapiens) (UniProt P41595); conditions: Compound concentration 10.0 uM
# [32] = biological target: 5-hydroxytryptamine receptor 1A (Homo sapiens) (UniProt P08908); conditions: Compound concentration 10.0 uM
# 5-hydroxytryptamine receptor 1A (Homo sapiens), sequence (P08908 whole entry): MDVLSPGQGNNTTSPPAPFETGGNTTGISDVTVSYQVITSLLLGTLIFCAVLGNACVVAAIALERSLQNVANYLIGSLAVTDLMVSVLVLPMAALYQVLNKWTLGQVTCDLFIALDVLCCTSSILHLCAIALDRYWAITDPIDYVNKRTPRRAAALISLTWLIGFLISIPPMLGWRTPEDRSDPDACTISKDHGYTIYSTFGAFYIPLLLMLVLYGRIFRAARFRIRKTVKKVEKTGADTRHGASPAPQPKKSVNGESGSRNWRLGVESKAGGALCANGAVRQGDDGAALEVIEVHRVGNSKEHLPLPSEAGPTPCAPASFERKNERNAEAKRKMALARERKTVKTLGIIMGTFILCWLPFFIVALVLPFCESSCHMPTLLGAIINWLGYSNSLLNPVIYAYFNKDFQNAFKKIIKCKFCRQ
# [33] = biological target: 5-hydroxytryptamine receptor 5A (Homo sapiens) (UniProt P47898); conditions: Compound concentration 10.0 uM
# [34] = biological target: 5-hydroxytryptamine receptor 7 (Homo sapiens) (UniProt P34969); conditions: Compound concentration 10.0 uM
# [35] = biological target: 5-hydroxytryptamine receptor 1D (Homo sapiens) (UniProt P28221); conditions: Compound concentration 10.0 uM
# [36] = biological target: Alpha-1D adrenergic receptor (Homo sapiens) (UniProt P25100); conditions: Compound concentration 10.0 uM
# Alpha-1D adrenergic receptor (Homo sapiens), sequence (P25100 whole entry): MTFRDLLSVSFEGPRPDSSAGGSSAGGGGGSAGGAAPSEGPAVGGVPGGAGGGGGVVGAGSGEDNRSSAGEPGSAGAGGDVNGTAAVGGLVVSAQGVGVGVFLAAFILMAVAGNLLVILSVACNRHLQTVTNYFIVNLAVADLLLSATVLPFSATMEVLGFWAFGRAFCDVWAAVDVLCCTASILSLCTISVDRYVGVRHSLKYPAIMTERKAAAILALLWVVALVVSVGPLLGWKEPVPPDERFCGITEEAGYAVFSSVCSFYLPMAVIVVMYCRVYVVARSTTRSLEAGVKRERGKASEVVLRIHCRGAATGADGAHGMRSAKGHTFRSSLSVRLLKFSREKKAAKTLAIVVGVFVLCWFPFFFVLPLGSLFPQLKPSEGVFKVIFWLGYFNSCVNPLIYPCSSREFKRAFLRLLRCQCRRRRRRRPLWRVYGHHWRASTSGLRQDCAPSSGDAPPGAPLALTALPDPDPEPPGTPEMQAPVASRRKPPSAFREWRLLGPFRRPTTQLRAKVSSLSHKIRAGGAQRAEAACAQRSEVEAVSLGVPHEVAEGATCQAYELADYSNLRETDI
# [37] = biological target: Alpha-2B adrenergic receptor (Homo sapiens) (UniProt P18089); conditions: Compound concentration 10.0 uM
# [38] = biological target: Histamine H3 receptor (Homo sapiens) (UniProt Q9Y5N1); conditions: Compound concentration 10.0 uM
# [39] = biological target: Muscarinic acetylcholine receptor M4 (Homo sapiens) (UniProt P08173); conditions: Compound concentration 10.0 uM
# Muscarinic acetylcholine receptor M4 (Homo sapiens), sequence (P08173 whole entry): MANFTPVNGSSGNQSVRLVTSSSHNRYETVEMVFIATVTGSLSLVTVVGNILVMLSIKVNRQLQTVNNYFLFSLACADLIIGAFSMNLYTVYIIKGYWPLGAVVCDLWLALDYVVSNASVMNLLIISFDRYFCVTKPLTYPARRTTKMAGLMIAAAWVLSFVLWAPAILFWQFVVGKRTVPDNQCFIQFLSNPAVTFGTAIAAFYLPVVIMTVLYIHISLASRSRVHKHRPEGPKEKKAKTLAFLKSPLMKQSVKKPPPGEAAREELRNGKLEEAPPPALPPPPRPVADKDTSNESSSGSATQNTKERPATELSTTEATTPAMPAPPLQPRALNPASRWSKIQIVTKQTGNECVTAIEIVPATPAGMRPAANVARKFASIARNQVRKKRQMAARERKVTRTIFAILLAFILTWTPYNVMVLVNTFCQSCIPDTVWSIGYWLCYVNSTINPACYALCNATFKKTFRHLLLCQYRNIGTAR
# [40] = biological target: Muscarinic acetylcholine receptor M2 (Homo sapiens) (UniProt P08172); conditions: Compound concentration 10.0 uM
# [41] = biological target: T3, Sodium-dependent dopamine transporter (Homo sapiens, UniProt Q01959); conditions: Compound concentration 10.0 uM
# T3 sequence (Q01959 whole entry): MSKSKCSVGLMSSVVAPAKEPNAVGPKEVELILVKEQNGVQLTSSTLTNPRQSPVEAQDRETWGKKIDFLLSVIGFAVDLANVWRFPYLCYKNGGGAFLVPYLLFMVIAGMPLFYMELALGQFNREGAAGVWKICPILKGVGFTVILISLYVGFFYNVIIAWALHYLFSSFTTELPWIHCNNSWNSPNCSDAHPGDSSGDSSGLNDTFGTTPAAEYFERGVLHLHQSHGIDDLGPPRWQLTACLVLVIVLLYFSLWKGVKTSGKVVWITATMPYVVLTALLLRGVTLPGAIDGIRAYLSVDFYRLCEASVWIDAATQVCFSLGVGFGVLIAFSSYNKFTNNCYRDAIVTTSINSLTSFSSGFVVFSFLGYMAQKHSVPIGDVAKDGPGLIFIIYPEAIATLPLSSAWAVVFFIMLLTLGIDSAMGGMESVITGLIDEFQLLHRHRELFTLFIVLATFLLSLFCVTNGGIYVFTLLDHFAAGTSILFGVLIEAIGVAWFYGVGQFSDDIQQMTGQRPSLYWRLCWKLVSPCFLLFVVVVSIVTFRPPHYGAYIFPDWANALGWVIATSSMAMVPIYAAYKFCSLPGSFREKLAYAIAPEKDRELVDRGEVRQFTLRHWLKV
# [42] = biological target: 5-hydroxytryptamine receptor 3A (Homo sapiens) (UniProt P46098); conditions: Compound concentration 10.0 uM
# [43] = biological target: Mu-type opioid receptor (Homo sapiens) (UniProt P35372); conditions: Compound concentration 10.0 uM
# [44] = biological target: Alpha-2A adrenergic receptor (Homo sapiens, UniProt P08913); assay: GPCRScan assay: inhibition of Alpha2A; parameters: radioligand conc. used [nm] 1.0 – 3.0, parental cells stable MDCK
# [45] = biological target: Alpha-1B adrenergic receptor (Homo sapiens) (UniProt P35368); conditions: Compound concentration 10.0 uM
# [46] = biological target: D(1A) dopamine receptor (Homo sapiens) (UniProt P21728); conditions: Compound concentration 10.0 uM
# [47] = biological target: Alpha-2A adrenergic receptor (Homo sapiens) (UniProt P08913); conditions: Compound concentration 10.0 uM
# [48] = biological target: T3, Sodium-dependent dopamine transporter; assay: GPCRScan assay: inhibition of DAT; parameters: radioligand conc. used [nm] 3.6 – 16.0, parental cells stable HEK
# [49] = biological target: Muscarinic acetylcholine receptor M5 (Homo sapiens) (UniProt P08912); conditions: Compound concentration 10.0 uM
# [50] = biological target: Ubiquitin carboxyl-terminal hydrolase isozyme L1 (Homo sapiens, UniProt P09936); assay: UCHL1 inhibition assay with Ub-Rho-morpholine as substrate
compound,measurement,setting,value
N#CN1CC[C@H](C(=O)Nc2nc3c(s2)CN(C(=O)CN=[N+]=[N-])CC3)C1 [8RK64],inhibition,Rattus norvegicus,21.9%
same,inhibition,[1],0.19%
same,inhibition,[2],0.58%
same,inhibition,[3],0.55%
same,inhibition,[4],-3.31%
same,inhibition,[5],-1.06%
same,inhibition,[6],-0.7%
same,inhibition,[7],-2.14%
same,inhibition,[8],1.57%
same,Ki,[9]; read-out: Ki,3.43 µM
same,Ki,[9]; read-out: pKi (converted),3.39 µM
same,inhibition,[10],5.77%
same,inhibition,[11],2.61%
same,inhibition,[12],8.43%
same,IC50,[13],0.32 µM (active)
same,inhibition,[14],11.2%
same,inhibition,[15],-1.04%
same,inhibition,[16],14.7%
same,inhibition,[17],7.45%
same,inhibition,[18],4.26%
same,Full inhibition,[19],3 µM
same,inhibition,[20],18.2%
same,inhibition,[21],9.94%
same,inhibition,[22],-1.19%
same,inhibition,[23],7.58%
same,inhibition,[24],69%
same,inhibition,[25],2.49%
same,inhibition,[26],2.35%
same,inhibition,[27],7.55%
same,inhibition,[28],-2.35%
same,inhibition,[29],-7.19%
same,inhibition,[30],30%
same,inhibition,[31],5.22%
same,inhibition,[32],7.61%
same,inhibition,[33],11.8%
same,inhibition,[34],-0.16%
same,inhibition,[35],-0.37%
same,inhibition,[36],12.2%
same,inhibition,[37],-1.02%
same,inhibition,[38],-5.98%
same,inhibition,[39],4.84%
same,inhibition,[40],-0.45%
same,inhibition,[41],-2.33%
same,inhibition,[42],2.31%
same,inhibition,[43],12.6%
N#CN1CC[C@@H](C(=O)Nc2nc3c(s2)CN(C(=O)CN=[N+]=[N-])CC3)C1 [JYQ88],inhibition,Rattus norvegicus,5.64%
same,inhibition,[1],13.3%
same,inhibition,[2],3.43%
same,inhibition,[3],4.82%
same,Ki,[44],> 10 µM
same,pKi,[44],< 5
same,inhibition,[5],34.2%
same,inhibition,[6],-8.12%
same,inhibition,[8],6.13%
same,inhibition,[11],3.51%
same,inhibition,[12],4.07%
same,inhibition,[14],3.73%
same,inhibition,[15],-2.15%
same,inhibition,[16],4.21%
same,inhibition,[17],0.43%
same,inhibition,[18],5.53%
same,inhibition,[45],-7.5%
same,inhibition,[20],6.22%
same,inhibition,[46],8.27%
same,inhibition,[47],50.7%
same,inhibition,[21],8.14%
same,inhibition,[23],24.4%
same,inhibition,[24],6.56%
same,inhibition,[25],7.66%
same,inhibition,[26],6.5%
same,inhibition,[28],28.7%
same,Ki,[48],> 10 µM
same,pKi,[48],< 5
same,inhibition,[29],3.17%
same,inhibition,[30],3.66%
same,inhibition,[49],2.94%
same,inhibition,[31],5.55%
same,inhibition,[32],12.1%
same,inhibition,[33],9.64%
same,inhibition,[34],-1.05%
same,inhibition,[35],20.9%
same,inhibition,[36],0.34%
same,inhibition,[37],6.46%
same,inhibition,[38],-2.11%
same,inhibition,[39],-1.43%
same,IC50,[50],12.9 µM (not active)
same,inhibition,[41],83%
same,inhibition,[42],0.95%
same,inhibition,[43],18.7%
